Assay [1] has as its system MCF7. Kind of assay: Antiproliferative activity against human MCF7 cells assessed as inhibition of cell viability after 72 hrs by CCK-8 assay. Format: functional, cell-based. Conditions: MCF7, 72 h. (Tetrazolium dyes change colour on reduction, which living cells bring about.)
Assay [2] concerns MCF-10A. Kind of assay: Cytotoxicity against human MCF-10A cells assessed as inhibition of cell viability after 72 hrs by CCK-8 assay. Format: cell-based.
In assay [3] the test system is MDA-MB-231. Description: Antiproliferative activity against human MDA-MB-231 cells assessed as inhibition of cell viability after 72 hrs by CCK-8 assay. The class given is functional, cell-based. Particulars: MDA-MB-231, 72 h.
In assay [4] the test system is BGC-823. Kind of assay: Antiproliferative activity against human BGC-823 cells assessed as inhibition of cell viability after 72 hrs by CCK-8 assay. The class given is functional, cell-based. Particulars: BGC-823, 72 h.
A short description of assay [5]: Selectivity index, ratio of IC50 for human MCF-10A cells to IC50 for human MCF-7 cells.
The test system of assay [6] is PC-3. Description: Antiproliferative activity against human PC-3 cells assessed as inhibition of cell viability after 72 hrs by CCK-8 assay. Format: functional, cell-based. Conditions: PC-3, 72 h.
Assay [7] deals with A549. Description: Antiproliferative activity against human A549 cells assessed as inhibition of cell viability after 72 hrs by CCK-8 assay. The class given is functional, cell-based. Particulars: A549, 72 h.
Assay [8] deals with BGC-823. Kind of assay: Antiproliferative activity against human BGC-823 cells assessed as inhibition of cell viability at 20 uM after 72 hrs by CCK-8 assay relative to control. Format: functional.
Assay [9] relates to PC-3. Description: Antiproliferative activity against human PC-3 cells assessed as inhibition of cell viability at 20 uM after 72 hrs by CCK-8 assay relative to control. The class given is functional.
The test system of assay [10] is MDA-MB-231. Description: Antiproliferative activity against human MDA-MB-231 cells assessed as inhibition of cell viability at 20 uM after 72 hrs by CCK-8 assay relative to control. Format: functional.
Assay [11] concerns A549. Description: Antiproliferative activity against human A549 cells assessed as inhibition of cell viability at 20 uM after 72 hrs by CCK-8 assay relative to control. The class given is functional.
In assay [12] the test system is MCF7. Kind of assay: Antiproliferative activity against human MCF7 cells assessed as inhibition of cell viability at 20 uM after 72 hrs by CCK-8 assay relative to control. The class given is functional.

For `COc1ccc2c(c1)-c1ccccc1OC2c1cccc(OC)c1OC` (stereo unspecified), the IC50 came to 15.2 µM in [1]; 47.9 µM in assay [2]; 22.5 µM in assay [3]; 9.23 µM in [4]; 7.86 µM in assay [6]; 17 µM in assay [7]. The “Ratio IC50” value in assay [5] turned out to be 3.15.

For the compound `CCOc1ccc(C2Oc3ccccc3-c3ccccc32)cc1` (stereo unspecified), the inhibition at 20 µM in assay [8] turned out to be 26.4%; in assay [9], 34%; in assay [10], 35.6%; in assay [11], 34.9%; in assay [12] it was 32%.

On to `COc1ccc2c(c1)-c1ccccc1OC2c1cccc(C)c1` (stereo unspecified), for which the inhibition at 20 µM in assay [8] worked out at 32%; in assay [9], 42.3%; in assay [10], 24.9%; in [11], 34.4%; in [12], 33.8%.

As for `COc1ccc(C2Oc3ccccc3-c3cc(OC)ccc32)cc1` (stereo unspecified), the inhibition at 20 µM worked out at 50.6% in assay [8]; 55.4% in [9]; 52.7% in assay [10]; 49.6% in assay [11]; 59.6% in [12].

Regarding `Cc1ccc(C2Oc3ccccc3-c3ccccc32)cc1` (stereo unspecified), the inhibition at 20 µM in assay [8] stood at 25%; in assay [9], 26%; in assay [10] it was 23.7%; in [11], 23.5%; in assay [12] it was 30.2%.

`COc1ccc(C2Oc3cc(C)ccc3-c3ccccc32)cc1` (stereo unspecified): the inhibition at 20 µM was determined as 32.9% in assay [8]; 38.1% in assay [9]; 25.6% in assay [10]; 22.6% in assay [11]; 30.3% in [12].

As for `COc1ccc(C2Oc3ccccc3-c3ccc(OC)cc32)cc1` (stereo unspecified), the inhibition at 20 µM in assay [8] is 47.1%; in [9], 44.7%; in assay [10], 43.2%; in [11], 43.6%; in assay [12], 45.5%.

For the compound `COc1ccc2c(c1)-c1ccccc1OC2c1ccc(C)cc1` (stereo unspecified), the inhibition at 20 µM in assay [8] turned out to be 37.4%; in assay [9], 38.9%; in assay [10], 35.7%; in assay [11], 31.1%; in assay [12] it was 40.4%.

For `COc1ccc2c(c1)-c1ccccc1OC2c1ccccc1C` (stereo unspecified), the IC50 was found to be 9.29 µM in [1]; 44.6 µM in assay [2]; 7.41 µM in assay [3]; 8.52 µM in [4]; 9.62 µM in [6]; 8.54 µM in [7]. The inhibition at 20 µM worked out at 64.2% in assay [8]; 66% in assay [9]; 59.8% in [10]; 60.9% in [11]; 69.7% in [12]. Moreover, in assay [5], the “Ratio IC50” value was determined as 4.8.

For the compound `c1ccc(C2Oc3ccccc3-c3ccccc32)cc1` (stereo unspecified), the inhibition at 20 µM in [8] is 18.8%; in [9] it was 19.2%; in assay [10], 27.2%; in [11], 23.8%; in assay [12], 25.3%.

As for `COc1ccc(C2Oc3ccc(OC)cc3-c3ccccc32)cc1` (stereo unspecified), the inhibition at 20 µM in assay [8] stood at 42.5%; in assay [9], 36.3%; in assay [10], 28.2%; in assay [11], 36.2%; in assay [12], 34.7%.

As for `COc1ccc2c(c1)-c1ccccc1OC2c1ccccc1` (stereo unspecified), the inhibition at 20 µM worked out at 30.5% in assay [8]; 31.8% in assay [9]; 30.6% in assay [10]; 32% in [11]; 25.6% in assay [12].

With `COc1cccc(C2Oc3ccccc3-c3cc(OC)c(OC)cc32)c1` (stereo unspecified), the IC50 in assay [1] worked out at 9.53 µM; in assay [2] it was 60.3 µM; in [3] it was 13.8 µM; in assay [4], 8.99 µM; in [6], 10.1 µM; in assay [7], 11.7 µM. For the same compound, the “Ratio IC50” value in [5] came out at 6.33.

For the compound `CCOc1ccc(C2Oc3ccccc3-c3cc(OC)ccc32)cc1` (stereo unspecified), the inhibition at 20 µM in assay [8] is 26.6%; in assay [9], 45%; in assay [10], 28.3%; in assay [11], 40.5%; in [12], 41.1%.

With `COc1ccc2c(c1)-c1ccccc1OC2c1ccc(SC)cc1` (stereo unspecified), the inhibition at 20 µM in [8] stood at 39.4%; in [9], 39.7%; in assay [10] it was 35.3%; in assay [11] it was 31.8%; in assay [12] it was 41.4%.

On to `COc1ccc2c(c1)-c1ccccc1OC2c1ccc(Br)cc1` (stereo unspecified), for which the inhibition at 20 µM came out at 24.1% in [8]; 43.9% in [9]; 31% in assay [10]; 38.8% in assay [11]; 40.5% in assay [12].

Regarding `c1ccc2c(c1)OC(c1cccc3ccccc13)c1ccccc1-2` (stereo unspecified), the inhibition at 20 µM in assay [8] came out at 26.1%; in assay [9], 34%; in assay [10], 30.6%; in [11], 31.5%; in [12] it was 26.4%.

With `COc1cccc(C2Oc3ccccc3-c3cc(OC)ccc32)c1` (stereo unspecified), the IC50 worked out at 9.94 µM in [1]; 58.5 µM in assay [2]; 18.6 µM in [3]; 13.2 µM in assay [4]; 14.3 µM in assay [6]; 17 µM in assay [7]. The inhibition at 20 µM in assay [8] was found to be 51.9%; in assay [9], 57%; in assay [10] it was 66.1%; in assay [11], 56.3%; in assay [12], 69.4%. Moreover, in assay [5], the “Ratio IC50” value worked out at 5.88.

Consider `COc1ccc(C2Oc3ccccc3-c3ccccc32)cc1` (stereo unspecified), for which the inhibition at 20 µM in assay [8] was 34.1%; in assay [9], 37%; in [10] it was 21.2%; in assay [11], 29.9%; in assay [12], 34.4%.

As to `COc1ccc2c(c1)-c1ccccc1OC2c1ccc(O[Si](C)(C)C(C)(C)C)cc1` (stereo unspecified), the inhibition at 20 µM in assay [8] came to 25.5%; in [9], 36.5%; in assay [10], 31%; in [11], 31.2%; in assay [12], 31.4%.

In the case of `COc1ccc2c(c1)-c1ccccc1OC2c1ccc(Cl)cc1` (stereo unspecified), the inhibition at 20 µM in [8] was 37%; in assay [9], 41.1%; in [10], 32.4%; in assay [11] it was 36%; in assay [12], 35.6%.

`COc1ccc2c(c1)-c1ccccc1OC2c1ccccc1OC` (stereo unspecified): the IC50 in assay [1] worked out at 8.92 µM; in [2] it was 61.6 µM; in [3], 15.2 µM; in assay [4], 26.1 µM; in assay [6], 21.4 µM; in assay [7], 23.5 µM. Also, in assay [5], the “Ratio IC50” value is on record as 6.9.

For `COc1ccc(C2Oc3ccc(Br)cc3-c3ccccc32)cc1` (stereo unspecified), the inhibition at 20 µM in [8] came out at 37.8%; in assay [9], 36.1%; in assay [10] it was 36.1%; in assay [11], 28.9%; in assay [12] it was 26.6%.

For the compound `COc1ccc(C2Oc3ccc(C)cc3-c3ccccc32)cc1` (stereo unspecified), the inhibition at 20 µM in [8] was determined as 27.6%; in [9] it was 36.3%; in [10], 23.2%; in [11], 29.4%; in assay [12] it was 32.9%.

Turning to `CC#C[C@]1(O)CC[C@H]2[C@@H]3CCC4=CC(=O)CCC4=C3[C@@H](c3ccc(N(C)C)cc3)C[C@@]21C` [MIFEPRISTONE], the IC50 in [1] worked out at 24 µM.

Consider `COc1ccc2c(c1)-c1ccccc1OC2c1cccs1` (stereo unspecified), for which the inhibition at 20 µM came to 28.2% in assay [8]; 53.7% in [9]; 38.6% in [10]; 43.9% in assay [11]; 53.1% in [12].

Usually IC50 stands for the point on the concentration scale where inhibition reaches its midpoint. What is called inhibition is the percentage by which the read-out fell short of the control.

These data come from ChEMBL document CHEMBL4680352, “Rational design and synthesis of 6-aryl-6H-benzo[c]chromenes as non-steroidal progesterone receptor antagonists for use against cancers” (Bioorg Med Chem, 2021).
